Test results reported in patent US9538763B2, “Cleaning, disinfecting and microbicidal compositions” (priority 2009, dated 2017).

Tests used:
Type in all cases: cell-based
[1] = test system: Salmonella; test: treatment of Salmonella-contaminated tomatoes; settings: 150 ppm
Experimental: The microbicidal efficacy of the microbicidal disinfecting composition of Example 1 (composition A) was further tested and proven effective against Salmonella on contaminated tomatoes. When Salmonella-contaminated tomatoes were treated with 0.1% solution of composition A, the viable bacterial population was reduced by 2.31 log10 CFU as compared with 2.11 log10 CFU with 150 ppm of hypochlorite.

[2] = test system: Staphylococcus aureus; test: modified detergent and germicidal sanitizer test of the A.O.A.C.; settings: 50 ppm hypochlorite control
Experimental: (§1) The microbicidal efficacy of the microbicidal disinfecting compositions of Examples 1-3 (compositions A-C) were evaluated with 50 ppm of hypochlorite as a control against Staphylococcus aureus and Escherichia coli by the modified detergent and germicidal sanitizer test of the A.O.A.C. (Lopes, 1986).

[3] = test system: Escherichia coli; test: as above; settings: 50 ppm hypochlorite control
Experimental: as §1

OCl [Hypochlorite, hypochlorite]
reduction of viable bacterial population [1]: 2.11 log10 CFU | % Kill Staph. aureus [2]: >99.999% | % Kill E. coli [3]: >99.999%
